{"source": "patent US10478437B2", "about": "“Combination therapy to enhance the anticancer efficacy of platinum drugs” (University of Pittsburgh-of the Commonwealth System of …, priority 2014, dated 2019)", "format_in_all_cases": "cell-based, human", "key": {"A2780cis cells": {"system": "A2780cis cells", "assay": "Western blot of caspase/PARP cleavage, Noxa induction, RPA32 and H2AX phosphorylation", "settings": "compound 20 μM + cisplatin 20 μM", "method": "(§1) Whole cell lysate was prepared by lysing cells in cell lysis buffer (Cell signaling technology) containing complete protease inhibitor (Roche). Cell lysates were then cleared at 15,000 rpm for 15 min at 4° C. The protein content was quantified using a Bio-Rad Protein Assay kit (Bio-Rad Laboratories, Hercules, Calif.). The equal amount of protein was separated on Tris-glycine gels (Invitrogen). The separated proteins were blotted onto a polyvinylidene difluoride membrane and blocked overnight at 4° C. in phosphate-buffered saline containing 0.1% Tween 20 and 10% nonfat dry milk (blocking buffer). Membranes were incubated with primary antibodies in blocking buffer overnight at 4° C. Primary antibodies used were: β-actin from Sigma; Bax, Bak, Caspase-9 and cleaved Caspase-3 from Cell Signaling Technology; phospho-Histone H2AX (Ser 139) and Noxa from Millipore. Membranes were then washed and incubated in peroxidase conjugated anti-rabbit IgG (Sigma) or anti-mouse IgG (Sigma) secondary antibody for 1 h at room temperature. Membranes were developed using SuperSignal West Femto Maximum Sensitivity Substrate (Thermo Fisher Scientific).\nA2780cis cells were treated with cisplatin alone, compounds alone or in combination with cisplatin at indicated concentrations for 20 h to analyze apoptotic cell death in response to treatment. […] Expression and cleavage of several major caspases (Caspase-8, Caspase-9 and Caspase-3), as well as poly(ADP-ribose) polymerase (PARP) and NOXA. A2780cis cells were treated with cisplatin (20 μM) alone, compounds (20 μM) alone or in combination with cisplatin for 20 h.\nTo determine the effects of the compounds on DNA damage and mitochondrial dysfunction, A2780cis cells were treated with cisplatin (20 μM) alone or the combination of cisplatin with 20 μM of compound 1-6. Replication protein A (RPA) is a single strand-specific DNA-binding protein, consisting of three subunits, RPA70, RPA32, and RPA14. RPA32 is phosphorylated in response to DNA replication stress. Western blot analysis was performed to evaluate the phosphorylation of RPA32 and histone H2AX, the induction of Noxa expression and cleavage of caspase-3. […] A2780cis cells were treated with cisplatin (50 μM) alone, 1-6 (50 μM) alone or the combination of cisplatin and compound 1-6 for 4 h. The oxygen consumption rate (OCR) was measured by a Seahorse extracellular flux analyzer."}, "[1]": {"system": "PEO4, SKOV3, H1299, MDA-MB-231, Ca133 cells", "assay": "Western blot of PARP and Caspase-3 cleavage in other cisplatin-resistant cancer cells", "settings": "20 h, FIG. 9, in words", "method": "FIG. 9. The combination of cisplatin and compound 1-6 triggers extensive apoptosis in various types of cisplatin- and multidrug-resistant tumor cells. Cisplatin-resistant cancer cells PEO4 (ovarian), SKOV3 (ovarian), H1299 (lung), MDA-MB-231 (breast), Ca133 (head & neck) were treated with DMSO (untreated), cisplatin (20 μM) alone, compound 1-6 (20 μM) alone, or the combination for 20 h. Cleavage of PARP and Caspase-3 were determined by western blot.\nas §1\nTo evaluate whether the synergistic effects of the disclosed compounds and cisplatin could be extended to other types of cancer cells, breast cancer cells (MDA-MB-231), non-small cell lung carcinoma cells (H-1299), ovarian cancer cells (PEO4 and SKOV3) and head and neck cancer cells (Ca133) were treated with various combinations of cisplatin and compound 1-6 and analyzed for Caspase-3."}, "[2]": {"system": "cisplatin-resistant ovarian cancer cell line A2780cis", "assay": "CellTiter-Blue cell viability assay, compound alone or with cisplatin or carboplatin, 24 h", "settings": "for Combination Index: CompuSyn software", "method_in_brief": "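A2780cis cells received compound at 10, 20 or 50 μM, alone or with cisplatin or carboplatin, for 24 h before CellTiter-Blue viability read-out. Data are mean±SD, combinations vs compound alone compared by Student's t test (P<0.05), and combination index computed by the Chou method.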"}, "[3]": {"system": "cisplatin-resistant ovarian cancer cell line A2780cis", "assay": "Caspase-3/7 activity assay (apoptotic cell death), compound alone or with cisplatin", "settings": "for caspase-3/7 activity (Lum) with compound and cisplatin (20 μM) / caspase-3/7 activity (Lum) with compound alone: Table 6; for caspase-3/7 activity (Lum) with compound alone: untreated cells 9 ± 1", "method_in_brief": "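Caspase-3/7 activity in A2780cis cells treated with compound alone or with cisplatin, luminescent Caspase-Glo 3/7 read-out. Apoptotic morphology is checked microscopically just before measurement.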"}, "[4]": {"settings": "compound 10 μM with cisplatin (20 μM)"}, "[5]": {"settings": "compound 20 μM with cisplatin (20 μM)"}, "[6]": {"settings": "compound 50 μM with cisplatin (20 μM)"}}, "note": "Entries after “also recorded” stand apart in the source; their conditions may differ."}
{"smiles": "CCOCCCn1c(=S)[nH]c2c(C)cccc2c1=O", "note": "[Compound 1-6]", "values": [{"measurement": "cleavage of caspases and PARP, induction of Noxa in combination with cisplatin", "setting": "A2780cis cells; 20 h, FIG. 7B, in words", "value": "cleavage of Caspase-8, 9, 3, PARP and the induction of Noxa"}, {"measurement": "time of enhanced phosphorylation of RPA32 post treatment, combination with cisplatin", "setting": "A2780cis cells; FIG. 8A", "value": "≤ 4", "unit": "h"}, {"measurement": "cell death after single compound exposure", "setting": "[1]; 20 μM alone", "value": "minimal effect in inducing cell death"}, {"measurement": "cleavage of Caspase 3 and PARP, combination with cisplatin", "setting": "[1]; compound 20 μM + cisplatin 20 μM", "value": "cleavage of Caspase 3 and PARP was observed"}, {"measurement": "cell viability after combination with carboplatin compared to carboplatin alone", "setting": "[2]; 24 h, FIG. 6, in words", "value": "cell viability was reduced"}, {"measurement": "viability at 10 µM", "setting": "[2]; Homo sapiens, A2780cis, compound 10 μM, 24 h, untreated cells = 100%, read-out: survival (%) of cells with compound alone", "value": "98.9 ± 3.1", "unit": "%"}, {"measurement": "viability at 20 µM", "setting": "[2]; Homo sapiens, A2780cis, compound 20 μM, 24 h, untreated cells = 100%, read-out: survival (%) of cells with compound alone", "value": "95.4 ± 4.2", "unit": "%"}, {"measurement": "viability at 50 µM", "setting": "[2]; Homo sapiens, A2780cis, compound 50 μM, 24 h, untreated cells = 100%, read-out: survival (%) of cells with compound alone", "value": "93.7 ± 4.4", "unit": "%"}, {"measurement": "Survival (%) of cells with compound and carboplatin (200 μM)", "setting": "[2]; compound 10 μM + carboplatin 200 μM, 24 h", "value": "64.5 ± 2.7", "unit": "%"}, {"measurement": "survival (%) of cells with compound and cisplatin (20 μM)", "setting": "[2]; compound 10 μM + cisplatin 20 μM, 24 h", "value": "58.8 ± 1.5", "unit": "%"}, {"measurement": "Grading (of combination index)", "setting": "[2]; [4]", "value": "Synergism"}, {"measurement": "Combination Index", "setting": "[2]; [4]", "value": 0.67}, {"measurement": "potency at enhancing the cytotoxicity of cisplatin compared to mdivi-1", "setting": "[2]; compound 10 μM with cisplatin, FIG. 4, in words", "value": "more potent than mdivi-1"}, {"measurement": "Survival (%) of cells with compound and carboplatin (200 μM)", "setting": "[2]; compound 20 μM + carboplatin 200 μM, 24 h", "value": "48.0 ± 3.0", "unit": "%"}, {"measurement": "survival (%) of cells with compound and cisplatin (20 μM)", "setting": "[2]; compound 20 μM + cisplatin 20 μM, 24 h", "value": "28.0 ± 1.6", "unit": "%"}, {"measurement": "Grading (of combination index)", "setting": "[2]; [5]", "value": "Strong"}, {"measurement": "Combination Index", "setting": "[2]; [5]", "value": 0.24}, {"measurement": "Survival (%) of cells with compound and carboplatin (200 μM)", "setting": "[2]; compound 50 μM + carboplatin 200 μM, 24 h", "value": "2.5 ± 0.4", "unit": "%"}, {"measurement": "survival (%) of cells with compound and cisplatin (20 μM)", "setting": "[2]; compound 50 μM + cisplatin 20 μM, 24 h", "value": "1.5 ± 0.6", "unit": "%"}, {"measurement": "Grading (of combination index)", "setting": "[2]; [6]", "value": "Very strong"}, {"measurement": "Combination Index", "setting": "[2]; [6]", "value": 0.01}, {"measurement": "activation of Caspase-3/7 in combination with cisplatin compared to mdivi-1", "setting": "[3]; FIG. 7A and Table 6, in words", "value": "more effective; also recorded: more potent than mdivi-1"}, {"measurement": "caspase-3/7 activity (Lum), compound with cisplatin", "setting": "[3]; Table 1, compound 20 μM with 20 μM cisplatin, 20 h", "value": "145 ± 6", "unit": "Lum"}, {"measurement": "caspase-3/7 activity (Lum), compound alone", "setting": "[3]; Table 1, compound 20 μM, 20 h, mean ± S.D. of triplicates", "value": "12 ± 0", "unit": "Lum"}, {"measurement": "caspase-3/7 activity (Lum), compound alone", "setting": "[3]; Table 2, compound 20 μM, 20 h", "value": "12 ± 0", "unit": "Lum"}, {"measurement": "caspase-3/7 activity (Lum) with compound and cisplatin (20 μM)", "setting": "[3]; compound 5 μM + cisplatin 20 μM, 20 h", "value": "22 ± 1", "unit": "Lum"}, {"measurement": "caspase-3/7 activity (Lum) with compound alone", "setting": "[3]; compound 5 μM, 20 h", "value": "10 ± 1", "unit": "Lum"}, {"measurement": "caspase-3/7 activity (Lum) with compound and cisplatin (20 μM)", "setting": "[3]; compound 10 μM + cisplatin 20 μM, 20 h", "value": "67 ± 3", "unit": "Lum"}, {"measurement": "caspase-3/7 activity (Lum) with compound alone", "setting": "[3]; compound 10 μM, 20 h", "value": "10 ± 1", "unit": "Lum"}, {"measurement": "caspase-3/7 activity (Lum) with compound and cisplatin (20 μM)", "setting": "[3]; compound 20 μM + cisplatin 20 μM, 20 h", "value": "105 ± 7", "unit": "Lum"}, {"measurement": "caspase-3/7 activity (Lum) with compound alone", "setting": "[3]; compound 20 μM, 20 h", "value": "11 ± 2", "unit": "Lum"}, {"measurement": "activity in the screen (Caspase-3/7 activity and microscopic examination), active / inactive", "setting": "[3]; alone or in the presence of cisplatin, in words", "value": "active"}, {"measurement": "Caspase-3/7 activity upon combination with cisplatin compared to cisplatin alone or compound alone", "setting": "[3]; in words", "value": "increase in Caspase-3/7 activity"}]}
